In patent US20150005381A1, “METHOD FOR MODULATING STEM CELL GROWTH” (SUCAMPO AG, priority 2008, published 2015):

Assays:
[1] = test system: full-thickness excisional wound in diabetic mice; experiment: Excisional wound healing in diabetic mice; format: in vivo, female diabetic (BKS.Cg-+Lepr^db/+Lepr^db/Jcl) mice; settings: ointment, Table 3
Procedure: The effect of Compound A (11-deoxy-13,14-dihydro-15-keto-16,16-difluoro-PGE1) on excisional wound healing was tested. A full-thickness excisional wound (1.5×1.5 cm) was made on the back of female diabetic (BKS.Cg-+Lepr^db/+Lepr^db/Jcl) mice at the age of 12 weeks. The excisional wound was covered with the perforated film dressing. Each test ointment was put into a 1-mL disposable polypropylene syringe to which a 21G hypodermic needle is attached, and 0.1 mL of the test ointment was applied to the wound by sticking the hypodermic needle into the film dressing, which covers the excisional wound. The application was performed once a day for 21 days starting from the day when the excisional wound was made; the day when the excisional wound was made was defined as Day 1. For histological examination, the skin including the excisional wound was obtained from animals treated with each test ointment for 6 days, and was served for immunostaining with antibody against Ki67, a marker protein of proliferating cells. The outline of each excisional wound was traced before application (Day 1) and Days 6, 8, 11, 13, 15, 18, 20, and 22 of administration. The traced excisional wound area was measured with an area-line meter. […]

[2] = test system: nigro-striatal dopaminergic neurons of MPTP-treated mice; experiment: Effect on impaired dopaminergic neurons in MPTP-treated mice (TH immunostaining); format: in vivo, male C57BL/6 mice; settings: Day 8; for Area of TH-positive immunostained fibers in striatum, mean ± S.E. / TH-positive immunostained cells in substantia nigra, mean ± S.E.: MPTP-treated mice
Procedure: The effect of Compound A (11-deoxy-13,14-dihydro-15-keto-16,16-difluoro-PGE1) on impaired neuron was tested. 1-methyl-4-phenyl-1,2,3,6-tetrahydropyridine hydrochloride (MPTP) was intraperitoneally administered to male C57BL/6 mice aged 10 weeks at 15 mg/kg/dose 4 times a day with an approximately 3-hour interval between doses for 2 days (experimental Day 1 and Day 2) to destroy the dopaminergic neuron in the brain. On the day following the final MPTP administration (on Day 3), some MPTP-treated mice were sacrificed to estimate the severity of degeneration and loss of nigro-striatal dopamine neurons by measuring the area of tyrosine hydroxylase (TH)-positive immunostained fibers in striatum. Other MPTP-treated mice were orally administered Compound A (11-deoxy-13,14-dihydro-15-keto-16,16-difluoro-PGE1) or the vehicle twice a day for 5 days (from Day 3 to Day 7) starting from the day following the final MPTP administration. The mice were decapitated on the day following the final administration of Compound A or the vehicle (on Day 8), and the whole brain was removed by incision of the skull, and placed into Bouin's fluid (pH 3.5-4.0). The brain section at the level of striatum (0.74 mm anterior to bregma) and substantia nigra (3.08 mm posterior to bregma) was cut out. After dehydration, the paraffin embedding of the slices was employed. Sections (about 6 μm thick) were prepared out of each of the slices at Bregma 0.74 mm and Bregma −3.08 mm, and the sections were used for TH immunostaining. The number of TH-positive immunostained cells in the right substantia nigra compacta (SNC) at Bregma −3.08 mm was counted by visual observation using an optical microscope OLYMPUS BH-2 (Olympus Corp.) with a ×20 microscope objective. For measuring the area of TH-positive immunostained fibers in striatum, an image obtained with an optical microscope OLYMPUS BH-2 (Olympus Corp.) with a ×40 microscope objective of TH-positive immunostained fibers in the right caudate putamen (CPu) at Bregma 0.74 mm was incorporated into a computer through OLYMPUS MCD-350, and the area of TH-positive fibers larger than 5 μm^2 was measured using an image analyzer Win ROOF (V5.6, Mitani Corp.), and expressed in term of an area of 1 mm^2.

[3] = Compound A 0.1 mg/kg orally twice a day for 5 days
[4] = Compound A 1 mg/kg orally twice a day for 5 days

CCCCC(F)(F)C(=O)CCC1CCC(=O)C1CCCCCCC(=O)O (stereo not shown) [Compound A, 11-deoxy-13,14-dihydro-15-keto-16,16-difluoro-PGE1]
Skin wound healing, in words [1]: accelerated skin wound healing | Mean area of TH-positive fibers in the striatum compared to MPTP+Vehicle (control) group ([2]; 0.1 mg/kg and 1 mg/kg groups): significantly greater mean area of TH-positive fibers in the striatum | Number of TH-positive immunostained cells in the substantia nigra, trend in words ([2]; 0.1 and 1 mg/kg orally): increased the number of TH-positive immunostained cells in the substantia nigra in a dose-dependent manner | Area of TH-positive immunostained fibers in striatum, mean ± S.E. [2, 3]: 0.0465 ± 0.0102 mm2 | TH-positive immunostained cells in substantia nigra, mean ± S.E. [2, 3]: 35.2 ± 5.0 Number of cells | Area of TH-positive immunostained fibers in striatum, mean ± S.E. [2, 4]: 0.0444 ± 0.0092 mm2 | TH-positive immunostained cells in substantia nigra, mean ± S.E. [2, 4]: 44.4 ± 5.0 Number of cells
